“Also recorded” adds a separate entry of the source.
Columns and labels:
[1] = In vitro release (elution testing) of injectable formulations in sterile PBS at 37 degrees C.; type: physicochemical; settings: drug encapsulated in SAIB nanoparticles suspended in hyaluronic acid solution, dialysis tubing, 50 rpm, UV-Vis
Procedure: About 21 mg of curcumin was dissolved in 2 ml of DMSO/SAIB (9:1 ratio of DMSO to SAIB in ethanol). The concentration of SAIB in the solution was about 104 mg per ml of DMSO/SAIB/Ethanol solution. This solution of curcumin/DMSO/SAIB/Ethanol was added drop wise to PBS while stirring. The nanoparticles of curcumin/SAIB formed when the DMSO/ethanol diffused out into the PBS (FIG. 3). 0.5 ml of the nanoparticle solution was then mixed with 2.5 ml of 1% Hyaluronic acid (HA) in PBS. The final mixture was then used for testing of injectability and for elution study.
Elution testing of various injectable formulations as described in example 2 was carried out in sterile PBS and at 37 degrees C. Drugs such as rapamycin, curcumin and sulfasalazine were used in the testing of various formulations. Each formulation was pipetted into a segment of dialysis tubing (Sigma Cat. D0530) with both ends of the tubing sealed. The dialysis tubing with the formulation was then placed inside a container and 15 ml of sterile PBS was added to the container. The container was then placed in an incubator shaker at 37 degrees C., 50 rpm and samples were withdrawn at regular time intervals and replaced with fresh sterile PBS. The samples were measured photometrically (UV-Vis) at a wavelength of 420 nanometers for curcumin, 359 nanometers for sulfasalazine and 278 nanometers for rapamycin.

[2] = Injectable formulation of sulfasalazine in SAIB/DMSO injected into an aqueous environment; type: physicochemical; settings: drug/DMSO mixed 1:1 with SAIB gel (90% in ethanol)
Source text: FIG. 2 is a drawing of the injectable formulation of FIG. 1 when injected into an aqueous environment. The liquid formulation of drug, DMSO and SAIB formed a liquid gel after the ethanol component in the SAIB and DMSO diffused out into the water. […] Controlled release of the drug over a long period of time can be beneficial to treat chronic inflammation in osteoarthritis. A known amount of sulfasalazine was weighed and dissolved in DMSO. This solution of sulfasalazine/DMSO was then mixed in 1:1 ratio with SAIB gel (90% by weight in ethanol). The mixture as shown in FIG. 1 can be loaded into a syringe and injected through a 20 GA needle. The mixture formed a gel that encapsulated the drug after the solvents (DMSO and ethanol) diffused out of the aqueous environment (FIG. 2).

[3] = cited from earlier work

| Structure (SMILES) | release kinetics of drug from the injectable formulation [1] | release of drug from the SAIB gel [2] | water solubility [3] |
| --- | --- | --- | --- |
| O=C(O)c1cc(/N=N/c2ccc(S(=O)(=O)Nc3ccccn3)cc2)ccc1O [sulfasalazine, Sulfasalazine] | high at the beginning and level off quickly in a few days | slowly diffused out of the gel in a controlled release manner | slightly water soluble |
| COc1cc(/C=C/C(=O)CC(=O)/C=C/c2ccc(O)c(OC)c2)ccc1O [curcumin, Curcumin] | released over an extended period of time; also recorded: controlled release manner | – | – |

From patent publication US20170079989A1, “METHOD FOR TREATMENT OF OSTEOARTHRITIS AND OTHER JOINT RELATED INJURIES AND CONDITIONS” (priority 2010, published 2017)
